The record followed here is paper PMC7067850, “Identification of highly potent and selective inhibitor, TIPTP, of the p22phox-Rubicon axis as a therapeutic agent for rheumatoid arthritis” (Scientific Reports, 2020).

A short description of data set [1]: Plasma stability assay. The settings on record: 37 °C. Type of data set: in vitro ADME. The procedure: Human plasma in each culture tube, treated with test compound (10 μM), was incubated at 37 °C for 0, 30 and 120 min. At the determined period of time, internal standard solution of chlopropamide in acetonitrile was added into each culture tube and then tubes were vortexed for 5 min, and then centrifuged for 5 min (14,000 rpm, 4 °C). The supernatant was then injected into LC-MS/MS system to analyze the plasma stability of the tested compound.

The test system of data set [2] is NLRP3 inflammasome. The data set is described as follows: NLRP3 inflammasome activation in LPS/ATP-treated BMDMs (immunoblot, ELISA). Type of data set: cell-based, mouse. The settings on record: NLRP3 inflammasome-activating stimuli (Fig. 3e, 3f). The procedure: For immunoblotting, polypeptides were resolved by SDS-polyacrylamide gel electrophoresis and transferred to a PVDF membrane (Bio-Rad). […] Antibody binding was visualized by chemiluminescence (ECL; Millipore) and detected by a Vilber chemiluminescence analyzer (Fusion SL 3; Vilber Lourmat).
Cell culture supernatants, mice sera and synovial fluid were analyzed for cytokine content using the BD OptEIA ELISA set (BD Pharmingen) for the detection of TNF-α, IL-6, IL-1β, and IL-18. All assays were performed as recommended by the manufacturer.
Figure 3 TIPTP robustly suppresses LPS/ATP-mediated Rubicon-p22phox interaction and ROS-mediated inflammation. (a) Structure of the TIPTP. (b) MTT assay for cell viability. BMDMs were incubated with TIPTP for the indicated times at the indicated TIPTP concentrations (upper). WCLs were used for IB with α22phox, αRubicon, or αActin (lower). (c–f) LPS (100 ng/ml)-primed BMDMs were treated with compounds for 1 h, and then activated with ATP (1 mM) for 30 min. (c) NADPH oxidase activity. (d) FACS analysis for superoxide and hydrogen peroxide (upper). Quantitative analysis of mean fluorescence intensities of ROS (lower). (e) BMDMs were incubated with increasing concentrations of compound 1 and TIPTP (com 2) (***). IP with αRubicon, followed by IB with αp22phox, αBeclin-1, αUVRAG, αRubicon. […] (f) Culture supernatants were harvested and analyzed for cytokines by ELISA. […]
In general terms: A western blot detects proteins with antibodies after separation by electrophoresis.

Data set [3] is described as follows: Pharmacokinetic study in male ICR mice (IP and IV). Type of data set: in vivo, mouse. The procedure:
TIPTP at a dose of 0.5 mg/kg and 1 mg/kg was administered intravenously and intraperitoneally to male ICR mice. Blood samples were collected via the carotid artery at 0 (to serve as a control), 0.03, 0.16, 0.25, 0.5, 1, 2, 4, 6, and 24 h after administration of the compound. After centrifugation at 3000 rpm for 10 min, a 13.5 µL aliquot of plasma samples were stored at -20 C until analysis. Pharmacokinetic parameters were determined by a noncompartmental analysis using WinNonlin® (Pharsight Corporation, Mountain View, CA) program. The total area under the plasma concentration-time curve from time zero to the last measured time (AUClast) was calculated by the trapezoidal rule[…] method. Standard methods in the literature (M. Gibaldi, D. Perrier, Pharmacokinetics, second ed., Marcel-Dekker, New York, 1982.) were used to calculate the following pharmacokinetic parameters; the time averaged total body clearance (CL), total area under the first moment of plasma concentration-time curve from time zero to time infinity (AUC0-∞), terminal half-life, mean residence time (MRT), apparent volume of distribution at steady state (Vss). Concentrations of the compound in the above samples were analyzed using LC-MS/MS. To a 13.5 µL aliquot of plasma sample, a 60 µL aliquot of acetonitrile containing 1 µg/mL of internal standard (carbamazepine) was added. After vortex mixing and centrifugation at 6,000 rpm for 15 min, a […] of supernatant was added to 100μL distilled water and injected into LCMS/MS system. The LC-MS/MS system consisted of Agilent 1200 series HPLC system (Agilent, Santa Clara, CA) and API3200® triple-quadrupole mass spectrometer (Applied Biosystems-SCIEX, Concord, Canada). The HPLC mobile phases consisted of 0.1% formic acid in water (A) and acetonitrile (B). Chromatographic separation was achieved on a reversed-phase Atlantis T3 column (100 x 2.1 mm, 3 µm, Waters Corporation, Milford, MA) using gradient elution at a flow rate of 0.25 mL/min. The lower limit of quantitation of the compound in mice plasma was 9.7 ng/mL. The values of coefficients of correlation (R) were more than 0.997.

Setting [4] is: IP, 1 mg/kg, male ICR mouse plasma.
The mark [5] stands for this setting: IV, 0.5 mg/kg, male ICR mouse plasma.

In the case of `C[C@@H](Oc1cccc(-n2cc3c(n2)CCCC3)c1)C(=O)Nc1nnc(C(F)(F)F)s1` [TIPTP, (R)-2-(3-(4,5,6,7-tetrahydro-2H-indazol-2-yl)phenoxy)-N-(5-(trifluoromethyl)-1,3,4-thiadiazol-2-yl)propanamide], in data set [1] (10 μM, 30 min, listed as TIPTP (2)), the “Human plasma stability (% remaining after 30 min)” value amounted to 97.4%. The “Human plasma stability (% remaining after 2 h)” value in data set [1] (10 μM, 2 h, listed as TIPTP (2)) amounted to 93.8%. Besides, the amount remaining – broadly, the share of the starting amount still present when the sample was taken – at 0.5 h, 10 μM in data set [1] (human, plasma, 30 min, read-out: Human plasma stability (% remaining after 30 min)) came out at 97%. In addition, the amount remaining at 2 h, 10 μM in data set [1] (human, plasma, 2 h, read-out: Human plasma stability (% remaining after 2 h)) turned out to be 94%. In data set [2], the “caspase-1 activation, and IL-1β and IL-18 maturation” value is “significantly decreased”. In data set [3] (setting [4]), the AUC(0-inf) (as a rule, total exposure, with the tail of the curve extrapolated) stood at 15100 ± 3410 ng·h/mL; the peak concentration (Cmax) (in general, the peak of the concentration-time curve) worked out at 5590 ± 1430 ng/mL; the MRT inf (usually the average time that molecules of a dose stay in the body) amounted to 3.42 ± 0.43 h; the Tmax (in general, the time at which the peak concentration occurs) is 13.8 ± 2.4 min. For the same compound, in data set [3] (setting [4]), the half-life (commonly the time in which the quantity being followed falls by half) was 175 ± 8.4 min. The AUC(0-t) (as a rule, the area under the concentration-time curve up to a stated or last time point) in data set [3] (IP, 1 mg/kg, male ICR mouse plasma, n = 5, mean ± SD) came to 15100 ± 3410 ng·h/mL. Further, in data set [3] (setting [5]), the AUC(0-inf) was determined as 10000 ± 451 ng·h/mL, the MRT inf was determined as 2.57 ± 0.52 h and the half-life was 220 ± 23.4 min. The exposure AUC(0-t) in data set [3] (IV, 0.5 mg/kg, male ICR mouse plasma, n = 3, mean ± SD) is 9980 ± 446 ng·h/mL. In addition, the clearance in data set [3] (plasma, IV, 0.5 mg/kg, male ICR mouse) was 0.832 mL/min/kg. In data set [3] (plasma, IV, 0.5 mg/kg, male ICR mouse, read-out: Vss), the Vd is 0.128 ± 0.0246 L/kg.
